In ChEMBL document CHEMBL1201862, “PubChem BioAssay data set” (2004):
Activity calls are given as the source filed them.

How the values were obtained:
[1] = target: Voltage-gated inwardly rectifying potassium channel KCNH2 (Homo sapiens, UniProt Q12809); details: Potency;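 also: confirmatory quantitative high-throughput screen measuring inhibition of hERG channel activity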
[2] = target: Beta-adrenergic receptor kinase 1 (Homo sapiens, UniProt P25098); test: GRK2 inhibitors displacing RNA aptamer, dose response, biochemical, flow cytometry beads, FAM-aptamer, powder set 1 (AID 588720)
Sequence of Beta-adrenergic receptor kinase 1 (P25098 whole entry): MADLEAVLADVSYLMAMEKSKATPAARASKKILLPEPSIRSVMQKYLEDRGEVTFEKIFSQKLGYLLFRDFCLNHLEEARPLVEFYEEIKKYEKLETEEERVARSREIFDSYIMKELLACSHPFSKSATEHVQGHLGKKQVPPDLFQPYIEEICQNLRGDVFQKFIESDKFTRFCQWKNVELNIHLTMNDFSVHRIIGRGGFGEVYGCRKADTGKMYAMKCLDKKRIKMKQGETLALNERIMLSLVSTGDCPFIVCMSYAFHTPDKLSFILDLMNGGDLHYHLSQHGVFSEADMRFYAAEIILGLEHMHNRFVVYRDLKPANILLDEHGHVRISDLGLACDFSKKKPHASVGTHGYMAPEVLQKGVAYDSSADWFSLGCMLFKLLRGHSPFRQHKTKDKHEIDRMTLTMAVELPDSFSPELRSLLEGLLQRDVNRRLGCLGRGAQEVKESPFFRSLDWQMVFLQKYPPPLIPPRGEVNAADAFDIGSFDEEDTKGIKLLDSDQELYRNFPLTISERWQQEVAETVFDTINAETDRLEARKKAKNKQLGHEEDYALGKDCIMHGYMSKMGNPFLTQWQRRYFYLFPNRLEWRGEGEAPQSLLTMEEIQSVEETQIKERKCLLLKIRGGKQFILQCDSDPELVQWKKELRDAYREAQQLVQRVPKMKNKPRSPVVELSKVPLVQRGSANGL

[3] = tested on: Jurkat; test: antigen receptor-induced NF-kB inhibitors, dose response, Jurkat, luciferase reporter, luminescence, B- and T-cell (AID 489004); assay type: functional, cell-based; details: Homo sapiens;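 also: NF-kB luciferase reporter Jurkat cells stimulated with PMA plus ionomycin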
[4] = off-target signal loss in HeLa-CEM21 co-culture – HeLa F-luc CTL cells, cherry-picked, counter-screen for HIV-1 Env fusion inhibitor project, dose response (AID 652040); assay type: functional, cell-based;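 also: potency for signal decrease marking cytotoxic or nonspecific inhibition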
[5] = CEM21 lymphoblast cell cytotoxicity, dose response, cytotoxicity control for viral fusion inhibitor project, CellTiter-Glo luminescence, cherry-picked (AID 652042); assay type: functional, cell-based;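 also: potency for signal decrease meaning cytotoxicity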
[6] = cytotoxicity in HEK-293T NF-kB-Luc cells, dose response, cytotoxicity control for B/T-cell NF-kB inhibitor project, cell-based, uHTS hits (AID 489019); assay type: functional;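 also: IC50 reflects cytotoxicity as loss of cell viability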
[7] = inhibitors of SNCA 5'UTR-driven reporter translation, confirmation, H4 neuroglioma cells, luminescence (AID 1988); assay type: functional, cell-based
[8] = inhibitors of firefly luciferase expression or activity, dose response, H4 neuroglioma cells, luminescence (AID 1990); assay type: functional, cell-based
[9] = inhibitors of clade B AD8 Env fusion, dose response, cell-based, cherry-pick (AID 652062); assay type: functional;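 also: luciferase signal from cell-cell fusion driven by HIV-1 clade B AD8 Env; potency is for inhibitors of fusion seen as a drop in luminescence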
[10] = Luminescence Cell-Based Dose Response HTS to Identify Inhibitors of 5'UTR Stem-Loop Driven Prion Protein mRNA Translation in H4 Neuroglioblastoma Cells. [Related pubchem assays: 1827 (Project Summary), 1813 (Primary HTS)]; assay type: functional
[11] = target: Mu-type opioid receptor (Homo sapiens, UniProt P35372); test: Counterscreen for agonists of heterodimerization of the mu 1 (OPRM1) and delta 1 (OPRD1) opioid receptors: Luminescence-based cell-based high throughput dose response assay to identify agonists of OPRM1 homodimerization.; assay type: functional;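 also: U2OS cells expressing OPRM1 and beta-arrestin as split beta-galactosidase partners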
Sequence of Mu-type opioid receptor (P35372 whole entry): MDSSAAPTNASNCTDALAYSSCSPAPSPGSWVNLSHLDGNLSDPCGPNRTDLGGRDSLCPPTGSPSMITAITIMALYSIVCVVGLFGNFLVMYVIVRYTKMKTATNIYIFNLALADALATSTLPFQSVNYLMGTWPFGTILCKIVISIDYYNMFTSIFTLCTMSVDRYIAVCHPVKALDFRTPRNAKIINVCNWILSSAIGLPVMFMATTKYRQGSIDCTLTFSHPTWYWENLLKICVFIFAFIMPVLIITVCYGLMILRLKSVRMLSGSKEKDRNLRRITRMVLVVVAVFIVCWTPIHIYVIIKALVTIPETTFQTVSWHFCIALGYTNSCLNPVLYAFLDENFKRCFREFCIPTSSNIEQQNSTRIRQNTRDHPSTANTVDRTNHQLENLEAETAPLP

[12] = target: T1, Short transient receptor potential channel 4 (Mus musculus, UniProt Q9QUQ5); test: mouse TRPC4 channel activators, dose response, cell-based, HEK293 TRPC4/mu-opioid, Fluo-4 calcium (AID 434937); assay type: functional
T1 sequence (Q9QUQ5 whole entry): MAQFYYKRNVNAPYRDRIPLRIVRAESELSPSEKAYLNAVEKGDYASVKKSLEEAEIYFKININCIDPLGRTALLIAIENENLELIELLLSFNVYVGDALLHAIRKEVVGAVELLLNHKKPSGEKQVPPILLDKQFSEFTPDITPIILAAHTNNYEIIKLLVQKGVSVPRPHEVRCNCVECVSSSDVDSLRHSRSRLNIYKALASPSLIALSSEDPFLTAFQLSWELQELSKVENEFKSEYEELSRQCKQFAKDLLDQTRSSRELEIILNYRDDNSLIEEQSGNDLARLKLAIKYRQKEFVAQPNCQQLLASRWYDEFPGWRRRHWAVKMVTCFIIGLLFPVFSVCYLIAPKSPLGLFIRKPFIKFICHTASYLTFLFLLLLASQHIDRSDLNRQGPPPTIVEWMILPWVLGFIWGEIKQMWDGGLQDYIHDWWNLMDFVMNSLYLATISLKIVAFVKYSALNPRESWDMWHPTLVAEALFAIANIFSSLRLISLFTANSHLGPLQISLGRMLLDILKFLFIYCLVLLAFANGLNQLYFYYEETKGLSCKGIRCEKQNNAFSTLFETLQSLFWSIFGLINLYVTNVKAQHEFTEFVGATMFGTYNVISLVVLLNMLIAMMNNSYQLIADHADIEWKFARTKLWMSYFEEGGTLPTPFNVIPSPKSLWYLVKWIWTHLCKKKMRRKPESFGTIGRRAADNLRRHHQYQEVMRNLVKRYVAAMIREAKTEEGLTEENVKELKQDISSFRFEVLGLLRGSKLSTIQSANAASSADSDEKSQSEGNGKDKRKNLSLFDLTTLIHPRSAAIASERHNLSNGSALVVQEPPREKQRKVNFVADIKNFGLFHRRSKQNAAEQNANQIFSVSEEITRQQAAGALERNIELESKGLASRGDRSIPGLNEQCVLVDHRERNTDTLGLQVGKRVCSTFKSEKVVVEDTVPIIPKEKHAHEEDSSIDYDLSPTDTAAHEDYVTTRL

[13] = target: Delta-type opioid receptor (Homo sapiens, UniProt P41143); test: Counterscreen for agonists of heterodimerization of the mu 1 (OPRM1) and delta 1 (OPRD1) opioid receptors: Luminescence-based cell-based high throughput dose response assay to identify agonists of OPRD1 homodimerization. [Related pubchem assays (depositor defined):AID504326, AID504355, AID504692, AID504904, AID504905]; assay type: functional
[14] = target: 5-hydroxytryptamine receptor 5A (Homo sapiens, UniProt P47898); test: Counterscreen for agonists of OPRM1-OPRD1 heterodimerization: luminescence-based cell-based high throughput dose response assay to identify agonists of 5-hydroxytryptamine (serotonin) 5A receptor (HTR5A). [Related pubchem assays (depositor defined):AID504326, AID504355, AID504692, AID504904, AID504905]; assay type: functional
Sequence of 5-hydroxytryptamine receptor 5A (P47898 whole entry): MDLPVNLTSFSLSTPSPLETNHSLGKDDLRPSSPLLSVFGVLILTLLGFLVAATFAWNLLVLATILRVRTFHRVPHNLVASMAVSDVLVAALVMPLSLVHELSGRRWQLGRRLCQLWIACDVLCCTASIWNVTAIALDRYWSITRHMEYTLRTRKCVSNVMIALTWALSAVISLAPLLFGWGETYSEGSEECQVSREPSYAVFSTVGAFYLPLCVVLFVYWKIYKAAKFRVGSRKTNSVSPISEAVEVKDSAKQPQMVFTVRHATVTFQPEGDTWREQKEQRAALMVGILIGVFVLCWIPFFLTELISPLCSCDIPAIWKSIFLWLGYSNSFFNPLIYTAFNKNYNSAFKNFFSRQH

[15] = target: Dual specificity tyrosine-phosphorylation-regulated kinase 1A (Rattus norvegicus, UniProt Q63470); assay type: biochemical, Homo sapiens
[16] = target: Keap1/Nrf2 (Homo sapiens, UniProt Q14145); test: Keap1-Nrf2 protein-protein interaction inhibitors, dose response, biochemical, fluorescence polarization, cherry-picked samples (AID 588683)
[17] = target: ORF 73 (Human herpesvirus 8, UniProt O40947); test: inhibitors of C-LANA binding to LBS DNA, dose response, biochemical, fluorescence polarization, cherry-picked samples (AID 504725); set-up: species or system Human gammaherpesvirus 8;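 also: fluorescence polarization of a labeled DNA duplex reporting LANA DNA binding; potency is for inhibitors that block LANA binding to the DNA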
[18] = target: Beta Lactamase (Pseudomonas aeruginosa, UniProt Q932Y6); test: beta-lactamase reporter inhibitor potency, dose response, artefact control for TLR9-MyD88 binding inhibitor project, BLA reporter cells, FRET fluorescence (AID 588341); assay type: cell-based;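 also: cell based assay in CHO-K1 cells stably expressing beta-lactamase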
Sequence of Beta Lactamase (Q932Y6 whole entry, the tested form may be a part): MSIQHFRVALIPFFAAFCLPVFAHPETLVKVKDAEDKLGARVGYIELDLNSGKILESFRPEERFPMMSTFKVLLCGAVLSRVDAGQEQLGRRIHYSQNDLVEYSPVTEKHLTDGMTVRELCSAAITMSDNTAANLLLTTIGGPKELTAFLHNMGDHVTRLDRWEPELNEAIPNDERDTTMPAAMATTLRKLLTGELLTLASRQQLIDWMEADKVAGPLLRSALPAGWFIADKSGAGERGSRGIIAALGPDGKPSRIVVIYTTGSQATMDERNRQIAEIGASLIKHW

[19] = tested on: CHO; test: cytotoxicity in TLR9-MyD88 CHO cells, dose response, cytotoxicity control for TLR9-MyD88 binding inhibitor project, cell-based, luminescence (AID 588339); assay type: functional, hamster; details: Cricetulus griseus;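 also: CHO cells stably coexpressing TLR9 and MyD88 fusions from primary screen; compound exposure lasted 48 hours before viability readout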
[20] = target: T2, Induced myeloid leukemia cell differentiation protein Mcl-1 (Homo sapiens, UniProt Q07820); test: MCL1-BIM BH3 interaction inhibitors, dose response, biochemical, fluorescence polarization, BIM-BH3 peptide, 1536-well (AID 2217)
T2 sequence (Q07820 whole entry): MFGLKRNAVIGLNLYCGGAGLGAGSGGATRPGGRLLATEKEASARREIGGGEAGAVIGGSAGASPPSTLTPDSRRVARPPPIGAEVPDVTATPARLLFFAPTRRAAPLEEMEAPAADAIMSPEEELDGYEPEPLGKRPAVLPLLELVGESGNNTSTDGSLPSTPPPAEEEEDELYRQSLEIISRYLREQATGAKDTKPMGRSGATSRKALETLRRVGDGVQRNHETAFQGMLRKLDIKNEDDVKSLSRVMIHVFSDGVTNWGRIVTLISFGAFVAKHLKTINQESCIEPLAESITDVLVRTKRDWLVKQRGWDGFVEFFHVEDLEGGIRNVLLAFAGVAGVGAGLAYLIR

[21] = Late-stage probe development counterscreen for inhibitors of the Hepatitis C Virus non-structural protein 3 helicase (NS3): luminescence-based cell-based dose response assay to determine whether compounds that inhibit replication of HCV RNA replicon are cytotoxic. [Related pubchem assays (depositor defined):AID1800, AID1830, AID1845, AID1943, AID1945, AID2172, AID2173, AID2474, AID2476]; assay type: functional
[22] = target: T3, Runt-related transcription factor 1/Core-binding factor subunit beta (Homo sapiens, UniProt Q01196+Q13951); test: inhibitors of RUNX1 Runt–CBFb-SMMHC binding, biochemical, TR-FRET (AID 1438); assay type: protein assay
T3 sequence (Q01196 whole entry): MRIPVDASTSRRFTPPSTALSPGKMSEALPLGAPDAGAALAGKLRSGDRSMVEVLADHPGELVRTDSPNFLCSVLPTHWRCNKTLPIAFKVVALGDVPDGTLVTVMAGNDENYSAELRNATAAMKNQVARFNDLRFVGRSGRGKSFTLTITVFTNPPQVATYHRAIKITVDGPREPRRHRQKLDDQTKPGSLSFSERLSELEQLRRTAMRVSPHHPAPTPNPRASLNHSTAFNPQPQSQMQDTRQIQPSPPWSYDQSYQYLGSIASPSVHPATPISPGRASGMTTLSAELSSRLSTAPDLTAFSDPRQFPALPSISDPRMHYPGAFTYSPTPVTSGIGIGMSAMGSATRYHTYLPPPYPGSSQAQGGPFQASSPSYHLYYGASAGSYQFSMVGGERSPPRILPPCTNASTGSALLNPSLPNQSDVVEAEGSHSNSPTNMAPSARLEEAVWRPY
T3 sequence (Q13951 whole entry): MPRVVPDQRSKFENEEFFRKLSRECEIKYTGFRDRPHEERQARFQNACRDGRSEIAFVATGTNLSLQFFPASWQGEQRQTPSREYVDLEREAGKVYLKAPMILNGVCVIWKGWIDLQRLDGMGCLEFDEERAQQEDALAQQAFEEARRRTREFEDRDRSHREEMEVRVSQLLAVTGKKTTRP

[23] = target: NS3 (Hepatitis C virus, UniProt A3EZJ3); test: PubChem AID 2173; set-up: species or system Hepacivirus hominis
[24] = target: Large T antigen (Simian virus 40, UniProt P03070); assay type: functional, Betapolyomavirus macacae;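 also: Confirmatory-stage PubChem screen for compounds that inhibit SV40 T antigen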
[25] = Counterscreen for AddAB inhibitors: absorbance-based bacterial cell-based high throughput dose response assay for inhibitors of bacterial viability. [Related pubchem assays (depositor defined):AID435030, AID449728, AID449731, AID488942, AID488955, AID488956]; assay type: functional
[26] = target: T2, Induced myeloid leukemia cell differentiation protein Mcl-1; assay type: functional
[27] = NIH-3T3 fibroblast cytotoxicity, dose response, cytotoxicity control, cell-based, fluorescence, Alamar Blue, secondary assay (AID 2327); assay type: functional;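 also: NIH-3T3 mouse fibroblasts cultured with fluconazole at 8 µg/mL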
[28] = target: T3, Runt-related transcription factor 1/Core-binding factor subunit beta; test: inhibitors of RUNX1 Runt–CBFb-SMMHC binding, primary screen, biochemical, FRET, Cerulean-Runt, Venus-CBFb-SMMHC, uHTS (AID 1434); assay type: protein assay;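 also: partner is the CBFb-SMMHC leukemia fusion protein rather than wild-type CBFb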
[29] = target: Transitional endoplasmic reticulum ATPase (Homo sapiens, UniProt P55072); test: p97 ATPase inhibitors, dose response, biochemical (AID 1534)
Sequence of Transitional endoplasmic reticulum ATPase (Homo sapiens, UniProt P55072) (P55072 whole entry): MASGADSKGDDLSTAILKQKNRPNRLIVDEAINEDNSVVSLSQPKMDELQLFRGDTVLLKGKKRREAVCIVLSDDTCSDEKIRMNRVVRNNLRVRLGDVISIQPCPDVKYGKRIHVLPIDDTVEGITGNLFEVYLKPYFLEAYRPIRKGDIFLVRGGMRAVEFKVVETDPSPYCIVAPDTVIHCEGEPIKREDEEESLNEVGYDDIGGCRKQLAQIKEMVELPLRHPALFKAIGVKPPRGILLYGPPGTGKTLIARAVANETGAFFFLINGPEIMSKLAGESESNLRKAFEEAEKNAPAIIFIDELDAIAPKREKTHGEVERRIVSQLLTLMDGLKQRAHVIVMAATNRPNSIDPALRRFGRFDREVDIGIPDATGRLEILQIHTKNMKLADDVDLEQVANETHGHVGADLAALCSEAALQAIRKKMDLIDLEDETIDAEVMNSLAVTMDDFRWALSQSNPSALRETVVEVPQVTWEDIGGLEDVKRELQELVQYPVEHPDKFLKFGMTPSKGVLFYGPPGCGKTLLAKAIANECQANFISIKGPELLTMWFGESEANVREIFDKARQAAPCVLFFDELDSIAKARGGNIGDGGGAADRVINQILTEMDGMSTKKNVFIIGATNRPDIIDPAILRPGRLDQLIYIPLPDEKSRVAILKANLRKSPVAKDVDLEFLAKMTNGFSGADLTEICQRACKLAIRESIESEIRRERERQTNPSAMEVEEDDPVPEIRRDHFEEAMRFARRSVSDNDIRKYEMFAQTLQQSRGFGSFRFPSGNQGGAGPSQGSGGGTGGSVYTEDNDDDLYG

[30] = target: T4, Low molecular weight phosphotyrosine protein phosphatase (Homo sapiens, UniProt P24666); assay type: functional; details: read-out: IC50_Mean;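 also: Dose-response confirmation assay measuring inhibition of LMPTP enzyme activity by fluorescence intensity read-out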
T4 sequence (P24666 whole entry): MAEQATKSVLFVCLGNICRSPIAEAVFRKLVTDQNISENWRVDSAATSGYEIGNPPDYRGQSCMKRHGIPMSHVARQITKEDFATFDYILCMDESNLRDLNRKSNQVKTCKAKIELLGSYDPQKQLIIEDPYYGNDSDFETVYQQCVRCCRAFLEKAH

[31] = target: T5, Mannose-6-phosphate isomerase (Homo sapiens, UniProt P34949); test: inhibitors of human PMI, primary screen, biochemical, fluorescence intensity, coupled assay (AID 1209)
T5 sequence (P34949 whole entry): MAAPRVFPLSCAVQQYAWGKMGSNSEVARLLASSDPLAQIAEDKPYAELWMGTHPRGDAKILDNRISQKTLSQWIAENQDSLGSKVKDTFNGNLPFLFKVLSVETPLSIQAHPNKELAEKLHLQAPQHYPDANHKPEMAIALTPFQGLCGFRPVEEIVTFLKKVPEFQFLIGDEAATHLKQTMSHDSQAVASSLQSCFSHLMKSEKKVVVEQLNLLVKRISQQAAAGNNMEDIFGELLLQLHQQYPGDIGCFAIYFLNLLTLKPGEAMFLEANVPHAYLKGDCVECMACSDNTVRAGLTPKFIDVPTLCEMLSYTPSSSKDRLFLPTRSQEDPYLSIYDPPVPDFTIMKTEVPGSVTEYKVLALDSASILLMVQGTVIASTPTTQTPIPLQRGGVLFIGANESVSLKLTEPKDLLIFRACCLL

[32] = target: Bcl-2-like protein 1 (Homo sapiens, UniProt Q07817); test: BCL-XL inhibitors, dose response, selectivity assay for MCL1 inhibitor project, biochemical, fluorescence polarization, 1536-well (AID 2218)
Sequence of Bcl-2-like protein 1 (Q07817 whole entry): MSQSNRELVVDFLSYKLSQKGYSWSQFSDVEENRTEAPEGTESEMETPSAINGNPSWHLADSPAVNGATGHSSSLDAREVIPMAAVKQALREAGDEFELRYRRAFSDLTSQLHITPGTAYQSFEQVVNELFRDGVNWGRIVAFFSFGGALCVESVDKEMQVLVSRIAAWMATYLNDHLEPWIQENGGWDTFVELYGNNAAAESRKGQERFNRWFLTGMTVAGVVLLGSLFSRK

[33] = target: Exodeoxyribonuclease V (Escherichia coli (strain K12), UniProt P04993+P07648+P08394); test: E. coli RecBCD inhibitors, dose response, counter-screen for AddAB inhibitor project, absorbance, V66 E. coli, mutant T4 phage (AID 492957); assay type: functional, cell-based, Escherichia coli str. K-12 substr. MG1655
[34] = target: Transitional endoplasmic reticulum ATPase (Homo sapiens, UniProt P55072, C522A); test: C522A mutant p97 ATPase inhibitors, dose response, counter-screen for p97 inhibitor project, biochemical, luminescence (AID 1544)
[35] = C. albicans growth with fluconazole, confirmation, fluorescence, retest (AID 2467); assay type: functional, cell-based
[36] = tested on: HeLa; test: HeLa cell cytotoxicity, dose response, cytotoxicity control for MITF activator project, CellTiter-Glo luminescence, cherry-pick samples (AID 540259); assay type: functional, cell-based; details: Homo sapiens
[37] = target: Hexokinase HKDC1 (Homo sapiens, UniProt Q2TB90); test: HKDC1 hexokinase inhibitors, SAR follow-up, biochemical, set 2 (AID 588355); assay type: functional
[38] = target: Hexokinase-1 (Homo sapiens, UniProt P19367); test: HK1 enzyme inhibition by HKDC1 hits, SAR follow-up, selectivity assay for HKDC1 inhibitor project, biochemical, set 2, resazurin fluorescence coupled readout (AID 588356); assay type: functional

Sequence of Voltage-gated inwardly rectifying potassium channel KCNH2 (Q12809 whole entry): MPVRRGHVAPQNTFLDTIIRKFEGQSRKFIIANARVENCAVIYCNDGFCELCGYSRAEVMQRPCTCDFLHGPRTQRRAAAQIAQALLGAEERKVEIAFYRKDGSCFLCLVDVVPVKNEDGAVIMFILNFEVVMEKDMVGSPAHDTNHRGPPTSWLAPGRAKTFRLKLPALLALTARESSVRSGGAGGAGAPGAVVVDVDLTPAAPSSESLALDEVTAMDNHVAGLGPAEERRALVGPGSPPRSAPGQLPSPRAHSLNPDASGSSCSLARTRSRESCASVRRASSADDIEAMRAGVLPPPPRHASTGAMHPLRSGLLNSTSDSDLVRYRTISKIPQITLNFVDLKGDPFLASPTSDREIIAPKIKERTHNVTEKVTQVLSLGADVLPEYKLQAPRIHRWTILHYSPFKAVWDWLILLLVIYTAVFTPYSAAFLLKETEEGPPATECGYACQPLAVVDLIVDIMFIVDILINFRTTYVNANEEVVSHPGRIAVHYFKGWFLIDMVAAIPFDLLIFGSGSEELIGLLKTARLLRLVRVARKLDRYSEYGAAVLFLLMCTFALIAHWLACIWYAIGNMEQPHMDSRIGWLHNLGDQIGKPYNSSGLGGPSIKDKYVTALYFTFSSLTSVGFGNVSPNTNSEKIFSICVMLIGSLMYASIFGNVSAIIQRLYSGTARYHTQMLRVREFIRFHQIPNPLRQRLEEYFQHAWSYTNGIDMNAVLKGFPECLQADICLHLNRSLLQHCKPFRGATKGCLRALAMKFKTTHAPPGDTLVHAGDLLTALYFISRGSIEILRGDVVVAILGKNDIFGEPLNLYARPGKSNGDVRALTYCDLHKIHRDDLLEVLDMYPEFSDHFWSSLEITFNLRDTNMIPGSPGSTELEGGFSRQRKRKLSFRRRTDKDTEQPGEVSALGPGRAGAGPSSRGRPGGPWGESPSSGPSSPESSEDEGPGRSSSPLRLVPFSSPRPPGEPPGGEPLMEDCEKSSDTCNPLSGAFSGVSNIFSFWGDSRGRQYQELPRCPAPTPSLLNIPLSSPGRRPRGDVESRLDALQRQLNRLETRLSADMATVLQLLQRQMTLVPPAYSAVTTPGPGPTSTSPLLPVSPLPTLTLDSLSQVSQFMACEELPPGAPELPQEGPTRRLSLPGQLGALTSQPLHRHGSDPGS

Compound: CCCCN1CCC(n2c(=O)[nH]c3ccccc32)CC1
- AC50 [1]: 11.2 µM (inconclusive)

Compound: COc1ccc(CCNC(=O)CCS(=O)(=O)c2ccc(Br)cc2)cc1OC
- EC50 [2]: 14.9 µM (active)

Compound: CCOc1ccc(-c2cc(CCCC(=O)Nc3cccc(OC)c3)no2)cc1
- IC50 [3]: 9.95 µM (active)
- AC50 [4]: 55.4 µM (active)
- AC50 [5]: 58.9 µM (active)
- IC50 [6]: > 80 µM (inactive)
- EC50 [7]: 3.89 µM (active)
- EC50 [8]: 7.56 µM (active)
- AC50 [9]: 2.45 µM (active)
- EC50 [10]: 0.24 µM (active)

Compound: CCOC(=O)C1(CCOc2ccccc2)CCN(Cc2ccc3c(c2)OCCO3)CC1
- EC50 [11]: > 92.5 µM (inactive)
- EC50 [12]: 1.33 µM (active)
- EC50 [13]: > 92.5 µM (inactive)
- EC50 [14]: > 92.5 µM (inactive)

Compound: Oc1ccc2nnc3c(Br)cnn3c2c1
- AC50 [15]: 1.11 µM (active)
- AC50 [16]: 16.1 µM (active)
- AC50 [17]: 6.64 µM (active)
- IC50 [18]: 6.63 µM (active)
- IC50 [19]: > 49.8 µM (inactive)

Compound: COc1cccc(-n2c(SCc3cc(=O)oc4cc(O)c(O)cc34)nc3ccccc3c2=O)c1
- IC50 [20]: > 109 µM (not active)
- CC50 [21]: > 100 µM (inactive)
- IC50 [22]: 19.3 µM (active)
- IC50 [23]: 2.31 µM (active)
- IC50 [24]: > 100 µM (active)
- IC50 [25]: > 119 µM (inactive)
- IC50 [26]: 2.72 µM (active)
- EC50 [27]: > 150 µM (inactive)
- IC50 [28]: 2 µM (active)
- IC50 [29]: 21.1 µM (not active)
- IC50 [30]: 53.1 µM (inactive)
- IC50 [31]: 15.6 µM (active)
- IC50 [32]: > 109 µM (not active)
- IC50 [33]: > 119 µM (inactive)
- IC50 [34]: > 50 µM (not active)
- EC50 [35]: > 38 µM (not active)

Compound: Cc1cccc(-c2cc(N)n(-c3ccccc3)n2)c1
- AC50 [36]: > 350 µM (inactive)

Compound: CCCCN1C(=O)C(NC(C)=O)c2cc(OC)ccc21 (stereo not drawn)
- IC50 [37]: > 80 µM (inactive)
- IC50 [38]: > 80 µM (inactive)
